Laboratory results as given in ChEMBL document CHEMBL3580533, “Antagonism/Agonism modulation to build novel antihypertensives selectively triggering i1-imidazoline receptor activation” (ACS Med Chem Lett, 2015).
The source made the active and inactive calls. The rule behind the calls is not given here.

Tests used:
Rattus norvegicus [1] = experiment: Reduction in heart rate in spontaneously hypertensive rat at 30 mg/kg, ip administered as single dose and measured 60 mins post dose by tail-cuff plethysmography; assay type: functional; conditions: 1 h
Rattus norvegicus [2] = experiment: Reduction in mean arterial blood pressure in spontaneously hypertensive rat at 30 mg/kg, ip administered as single dose and measured 30 mins post dose by tail-cuff plethysmography; assay type: functional; conditions: 0.5 h
[3] = target: T1, Adrenergic receptor alpha-2 (Rattus norvegicus, UniProt P22086+P19328+P22909); experiment: Displacement of [3H]-clonidine from alpha2 adrenoreceptor in rat cortex membranes; assay type: cell membranes
T1 sequence (P22086 whole entry): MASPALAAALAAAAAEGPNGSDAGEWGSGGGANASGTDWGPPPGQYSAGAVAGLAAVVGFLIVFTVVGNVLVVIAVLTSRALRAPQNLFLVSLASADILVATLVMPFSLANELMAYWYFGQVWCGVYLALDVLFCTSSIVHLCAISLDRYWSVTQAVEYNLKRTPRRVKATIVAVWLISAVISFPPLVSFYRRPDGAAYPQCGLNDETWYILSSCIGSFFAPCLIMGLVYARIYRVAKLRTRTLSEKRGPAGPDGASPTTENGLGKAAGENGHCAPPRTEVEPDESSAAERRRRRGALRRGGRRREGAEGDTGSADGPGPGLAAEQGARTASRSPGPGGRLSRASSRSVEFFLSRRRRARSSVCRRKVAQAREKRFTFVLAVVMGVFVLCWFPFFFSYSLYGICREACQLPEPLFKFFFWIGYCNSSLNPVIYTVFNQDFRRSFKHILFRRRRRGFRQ
T1 sequence (P19328 whole entry): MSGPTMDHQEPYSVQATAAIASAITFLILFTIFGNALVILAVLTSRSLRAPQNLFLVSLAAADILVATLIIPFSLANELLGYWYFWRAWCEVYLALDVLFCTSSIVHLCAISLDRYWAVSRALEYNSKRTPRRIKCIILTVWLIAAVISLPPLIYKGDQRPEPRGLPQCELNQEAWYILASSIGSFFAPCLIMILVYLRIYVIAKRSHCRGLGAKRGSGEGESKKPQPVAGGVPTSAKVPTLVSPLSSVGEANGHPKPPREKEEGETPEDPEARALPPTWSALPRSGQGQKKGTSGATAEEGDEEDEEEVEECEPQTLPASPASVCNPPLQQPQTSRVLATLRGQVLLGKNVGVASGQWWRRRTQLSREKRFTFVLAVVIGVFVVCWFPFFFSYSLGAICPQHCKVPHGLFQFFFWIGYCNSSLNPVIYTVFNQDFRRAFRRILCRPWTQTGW
T1 sequence (P22909 whole entry): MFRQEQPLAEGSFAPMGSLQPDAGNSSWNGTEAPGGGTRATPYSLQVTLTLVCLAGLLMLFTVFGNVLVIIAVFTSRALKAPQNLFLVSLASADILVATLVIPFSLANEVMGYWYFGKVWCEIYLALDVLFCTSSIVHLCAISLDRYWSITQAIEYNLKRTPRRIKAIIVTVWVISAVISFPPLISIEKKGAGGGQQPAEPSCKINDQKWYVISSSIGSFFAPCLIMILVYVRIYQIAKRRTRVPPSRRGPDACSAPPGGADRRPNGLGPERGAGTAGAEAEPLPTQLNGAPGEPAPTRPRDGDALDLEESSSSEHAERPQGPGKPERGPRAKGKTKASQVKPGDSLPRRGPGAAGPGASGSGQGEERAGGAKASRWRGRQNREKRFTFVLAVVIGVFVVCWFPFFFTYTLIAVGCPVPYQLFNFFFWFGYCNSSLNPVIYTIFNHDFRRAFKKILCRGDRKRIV

Nischarin = Nischarin (Rattus norvegicus, UniProt Q4G017); experiment: Displacement of [125I]-p-iodoclonidin from I1-imidazoline receptor in rat PC12 cell membranes; set-up: species or system PC-12
Nischarin, sequence (Q4G017 whole entry): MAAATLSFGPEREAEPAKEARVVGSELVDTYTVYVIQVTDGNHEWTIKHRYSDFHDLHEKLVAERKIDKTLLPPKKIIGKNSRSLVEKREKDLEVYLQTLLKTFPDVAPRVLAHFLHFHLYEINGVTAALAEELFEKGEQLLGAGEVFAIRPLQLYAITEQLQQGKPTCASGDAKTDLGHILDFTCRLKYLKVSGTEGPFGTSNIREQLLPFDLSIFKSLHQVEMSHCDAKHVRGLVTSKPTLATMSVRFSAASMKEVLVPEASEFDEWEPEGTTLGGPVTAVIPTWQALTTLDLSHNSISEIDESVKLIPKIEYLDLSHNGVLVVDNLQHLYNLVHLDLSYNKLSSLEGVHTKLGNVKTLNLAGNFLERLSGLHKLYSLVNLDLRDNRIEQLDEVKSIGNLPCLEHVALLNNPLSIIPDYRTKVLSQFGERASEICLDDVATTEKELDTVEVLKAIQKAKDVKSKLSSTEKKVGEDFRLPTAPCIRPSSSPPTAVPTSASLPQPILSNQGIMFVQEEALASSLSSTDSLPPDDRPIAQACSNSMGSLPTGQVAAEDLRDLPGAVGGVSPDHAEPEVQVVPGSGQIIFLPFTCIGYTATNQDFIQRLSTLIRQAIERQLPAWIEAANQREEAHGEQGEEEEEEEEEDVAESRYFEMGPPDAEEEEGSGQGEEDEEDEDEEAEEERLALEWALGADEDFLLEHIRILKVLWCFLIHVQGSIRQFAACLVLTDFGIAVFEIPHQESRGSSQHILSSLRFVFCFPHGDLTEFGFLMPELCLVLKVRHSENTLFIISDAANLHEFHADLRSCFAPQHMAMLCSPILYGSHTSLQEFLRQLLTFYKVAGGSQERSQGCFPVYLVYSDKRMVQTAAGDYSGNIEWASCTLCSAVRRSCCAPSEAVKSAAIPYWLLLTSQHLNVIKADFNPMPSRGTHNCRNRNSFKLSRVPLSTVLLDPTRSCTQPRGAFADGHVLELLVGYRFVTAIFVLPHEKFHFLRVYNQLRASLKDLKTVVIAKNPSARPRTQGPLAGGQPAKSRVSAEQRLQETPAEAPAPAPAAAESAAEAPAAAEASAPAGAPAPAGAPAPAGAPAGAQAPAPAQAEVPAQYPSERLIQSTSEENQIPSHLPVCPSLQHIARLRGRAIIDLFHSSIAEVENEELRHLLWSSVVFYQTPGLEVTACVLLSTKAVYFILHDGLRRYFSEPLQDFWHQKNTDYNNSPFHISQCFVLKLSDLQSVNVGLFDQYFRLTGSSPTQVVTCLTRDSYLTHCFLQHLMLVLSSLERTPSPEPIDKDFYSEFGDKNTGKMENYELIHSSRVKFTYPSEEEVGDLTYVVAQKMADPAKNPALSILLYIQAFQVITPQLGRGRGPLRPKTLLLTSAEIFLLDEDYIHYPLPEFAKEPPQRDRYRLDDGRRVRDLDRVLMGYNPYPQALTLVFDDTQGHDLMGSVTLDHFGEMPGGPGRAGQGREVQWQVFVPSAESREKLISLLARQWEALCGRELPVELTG

Rattus norvegicus [4] = experiment: Reduction in heart rate in spontaneously hypertensive rat at 30 mg/kg, ip administered as single dose and measured 120 mins post dose by tail-cuff plethysmography; assay type: functional; conditions: 2 h
Rattus norvegicus [5] = experiment: Reduction in heart rate in spontaneously hypertensive rat at 30 mg/kg, ip administered as single dose and measured 30 mins post dose by tail-cuff plethysmography; assay type: functional; conditions: 0.5 h
Rattus norvegicus [6] = experiment: Reduction in mean arterial blood pressure in spontaneously hypertensive rat at 30 mg/kg, ip administered as single dose and measured 60 mins post dose by tail-cuff plethysmography; assay type: functional; conditions: 1 h
Rattus norvegicus [7] = experiment: Reduction in mean arterial blood pressure in spontaneously hypertensive rat at 30 mg/kg, ip administered as single dose and measured 120 mins post dose by tail-cuff plethysmography; assay type: functional; conditions: 2 h
Rattus norvegicus [8] = experiment: Reduction in mean arterial blood pressure in spontaneously hypertensive rat at 30 mg/kg, ip administered as single dose and measured 30 to 120 mins post dose pre-treated with 30 mg/kg, ip 2-(1-phenylpropan-2-yl)-4,5-dihydro-1H-imidazole by tail-cuff plethysmography; assay type: functional, organism-based
PC-12 = experiment: Selectivity ratio, […]-imidazoline receptor in rat PC12 cell membranes to […] adrenoreceptor in rat cortex membranes; assay type: cell-based

SMILES | pKi [3] | Ki (Nischarin) | inhibition in vivo at 30 mg/kg (Rattus norvegicus [1]) | inhibition in vivo at 30 mg/kg (Rattus norvegicus [2]) | inhibition in vivo at 30 mg/kg (Rattus norvegicus [4]) | inhibition in vivo at 30 mg/kg (Rattus norvegicus [5]) | inhibition in vivo at 30 mg/kg (Rattus norvegicus [6]) | inhibition in vivo at 30 mg/kg (Rattus norvegicus [7]) | inhibition (Rattus norvegicus [8]) | Ratio (PC-12)
Cc1ccccc1C[C@@H](C)C1=NCCN1 | < 6 | 1050 nM | 4.18% | 8.67% | 0% | 9.17% | 12.7% | 3.01% | – | –
CC(Oc1ccccc1)C1=NCCN1 (stereo not drawn) | – | 309 nM | – | – | – | – | – | – | – | –
CC(Cc1ccccc1Cl)C1=NCCN1 (stereo not drawn) | < 6 | 195 nM | 11.6% | 37.8% | 8.02% | 11.1% | 31.4% | 32.4% | – | –
CC(Oc1ccccc1-c1ccccc1)C1=NCCN1 (stereo not drawn) [BIPHENYLINE] | – | 126 nM | – | – | – | – | – | – | – | –
Cc1ccccc1C[C@H](C)C1=NCCN1 | < 6 | 13.2 nM | 11.1% | 34.4% | 5.89% | 12% | 26% | 7.85% | – | –

Continued, in another order:

pKi [3] | Ki (Nischarin) | SMILES | inhibition in vivo at 30 mg/kg (Rattus norvegicus [1]) | inhibition in vivo at 30 mg/kg (Rattus norvegicus [2]) | inhibition in vivo at 30 mg/kg (Rattus norvegicus [4]) | inhibition in vivo at 30 mg/kg (Rattus norvegicus [5]) | inhibition in vivo at 30 mg/kg (Rattus norvegicus [6]) | inhibition in vivo at 30 mg/kg (Rattus norvegicus [7]) | inhibition (Rattus norvegicus [8]) | Ratio (PC-12)
< 6 | > 1000 nM | CC(Cc1ccccc1-c1cccc(O)c1)C1=NCCN1 (stereo not drawn) | – | – | – | – | – | – | – | –
< 6 | > 1000 nM | CC(Cc1ccccc1-c1cccnc1)C1=NCCN1 (stereo not drawn) | – | – | – | – | – | – | – | –
– | 2240 nM | C[C@H](Cc1ccccc1-c1ccccc1)C1=NCCN1 | – | – | – | – | – | – | – | –
< 6 | 23.4 nM | Cc1ccccc1CC(C)C1=NCCN1 (stereo not drawn) | 13.6% | 32.4% | 7.66% | 11.7% | 29.7% | 53.1% | inactive | –
– | 97.7 nM | C[C@@H](Cc1ccccc1-c1ccccc1)C1=NCCN1 | – | – | – | – | – | – | – | –
< 6 | 63.1 nM | CC(Cc1ccccc1-c1ccsc1)C1=NCCN1 (stereo not drawn) | 19.7% | 24.8% | 11.2% | 26.4% | 35.1% | 10.8% | – | –
4.1 | 155 nM | CC(Cc1ccccc1-c1ccccc1)C1=NCCN1 (stereo not drawn) | 13.8% | 27.6% | 11.9% | 14.2% | 25.4% | 34.9% | – | 513
